First: CN1C(=O)N(c2cc(Cl)cc(Cl)c2)C(=O)[C@]12CN(CN1C[C@H](c3ccc(C#N)cc3)[C@@]3(C1)C(=O)N(c1cc(Cl)cc(Cl)c1)C(=O)N3C)C[C@H]2c1ccc(C#N)cc1 (hydrate or solvate) [Example 6a, Meso Aminal Dimer of 4-[3-(3,5-Dichlorophenyl)-1-methyl-2,4-dioxo-1,3,7-triazaspiro[4.4]non-9-yl]-benzonitrile]
Second: CN1C(=O)N(c2cc(Cl)cc(Cl)c2)C(=O)[C@]12CN(CN1C[C@@H](c3ccc(C#N)cc3)[C@]3(C1)C(=O)N(c1cc(Cl)cc(Cl)c1)C(=O)N3C)C[C@H]2c1ccc(C#N)cc1 (racemic) (hydrate or solvate) [Example 6b, Racemic Aminal Dimer of 4-[3-(3,5-Dichlorophenyl)-1-methyl-2,4-dioxo-1,3,7-triazaspiro[4.4]non-9-yl]-benzonitrile]
The melting point of the first is higher: 79 to 109 °C for the first, 31 to 47 °C for the second.

`COC(=O)c1csc(CN2C[C@@H](c3ccc(C#N)cc3)[C@]3(C2)C(=O)N(c2cc(Cl)cc(Cl)c2)C(=O)N3C)c1.Cl` (stereo in doubt) showed a melting point of 204 to 207 °C.

Source: US7381737B2, “Crystalline forms and process for preparing spiro-hydantoin compounds” (Bristol-Myers Squibb Company, priority 2004, dated 2008)
